Experimental data reported in US20050075494A1, “Isolated nucleic acid molecules encoding a human and mouse g protein-coupled receptor-gpr54: encoded proteins, cells transformed therewith and uses thereof” (priority 2000, published 2005).

Columns and labels:
Assay type in all cases: cell-based
Human GPR54 receptor = biological target: T1, Human GPR54 receptor (Homo sapiens, UniProt Q969F8, L364H); assay: aequorin assay in HEK293/aeq17 cells expressing human GPR54; conditions: aequorin luminescence, 5-fold serial dilutions, triplicates
T1 construct: Clones containing full-length GPR54 were thus identified; expressed in transfected cells
Protocol: The HEK293/aeq17 cell line was licensed in from NIH (Button and Brownstein, 1993, Cell Calcium, 14:663-671). The cells were grown in Dulbecco's Modified Medium (MEM, GIBCO-BRL, Gaithersburg, Md., USA)+10% fetal bovine serum (heat inactivated), 1 mM sodium pyruvate, 500 ug/ml Geneticin, 100 ug/ml streptomycin, 100 units/ml penicillin. […] Puromycin-resistant clones were selected and bulk stables were used for further analysis.
For the aequorin assay, cell were washed once with DMEM+0.1% fetal bovine serum, and then charged for one hour at 37° C. 15% CO2 in DMEM containing 8 uM coelenterazine cp (Molecular Probes, Eugene, Oreg., USA) and 30 uM glutathione. […] The cell density was determined by counting with a hemacytometer and adjusted to 500,000 cells/ml in ECB.
The neuropeptides were diluted in ECB into 2× concentrates using 5-fold serial dilutions, and aliquoted into assay plates in triplicates at 0.1 ml/well. The cell suspension was injected at 0.1 ml/well, read and integrated for a total of 400 readings using a luminometer (Luminoskan Ascent, Labsystems Oy, Helsinki, Finland). Data was analyzed using the software GraphPad Prism Version 3.0 (GraphPad Software, Inc., San Diego, Calif., USA).

rat GPR54 = biological target: T2, rat GPR54 (Rattus norvegicus, UniProt Q924U1); assay: β-lactamase reporter enzyme assay in CHO-NPAT-bla cells expressing rat GPR54
T2 construct: expressed in transfected cells
Protocol: The full-length coding sequence of rat GPR54 was sub-cloned into the expression vector pIRESpuromycin (Clontech, Palo Alto, Calif., USA) in accordance with the manufactures directions. This GPR54 plasmid was transfected into Aurora's CHO-NPAT-bla cells using the reagent Lipofectamine 2000 (GIBCO-BRL, Gaithersburg, Md., USA). Puromycin-resistant bulk stables expressing rat GPR54 were selected and used for screening for agonist.
β-lactamase assays were carried as described by (Zlokarnik et al., 1998, Quantitation of transcription and clonal selection of single living cells with beta-lactamase as reporter. Science 1998, 279:84-88). All peptides were from Phoenix Pharmaceuticals. […] Four (4) hours after the addition of ligands, cells were loaded with dye and measured for fluorescence approximately 45 minutes later.
An extremely sensitive transcription-based assay is disclosed in Zlokarnik et al., 1998, Science 279:84-88 (Zlokarnik) and also in U.S. Pat. No. 5,741,657, both of which are incorporated by reference in their entirety herein. […] This increase in β-lactamase is measured by treating the cells with a cell-permeable dye that is a substrate for cleavage by β-lactamase. […] In the intact dye, the two fluorescent moieties are physically linked, and thus close enough to one another that fluorescence resonance energy transfer FRET) can take place between them. […]

[1] = system: Control cells (cells that do not express rat GPR54); assay: β-lactamase reporter assay in control cells; conditions: data not shown
Protocol: β-lactamase assays were carried as described by (Zlokarnik et al., 1998, Quantitation of transcription and clonal selection of single living cells with beta-lactamase as reporter. Science 1998, 279:84-88). All peptides were from Phoenix Pharmaceuticals. Cells were seeded two days prior to assay. The day before being assayed, cells were changed to serum-free media. Four (4) hours after the addition of ligands, cells were loaded with dye and measured for fluorescence approximately 45 minutes later.
These peptides were then individually tested against GPR54-expressing cells.

T2 sequence (Q924U1 whole entry): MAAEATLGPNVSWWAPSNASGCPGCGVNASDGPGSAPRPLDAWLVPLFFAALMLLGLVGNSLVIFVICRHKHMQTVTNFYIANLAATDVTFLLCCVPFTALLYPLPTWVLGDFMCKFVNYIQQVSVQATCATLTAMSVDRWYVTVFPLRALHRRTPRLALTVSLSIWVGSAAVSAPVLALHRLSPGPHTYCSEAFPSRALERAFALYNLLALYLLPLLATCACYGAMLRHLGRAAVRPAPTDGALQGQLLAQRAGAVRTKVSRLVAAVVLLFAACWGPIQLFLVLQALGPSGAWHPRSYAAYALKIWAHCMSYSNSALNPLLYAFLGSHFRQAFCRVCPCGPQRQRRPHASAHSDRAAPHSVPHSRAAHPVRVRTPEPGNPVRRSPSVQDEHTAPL
T1 sequence (Q969F8 whole entry L364H): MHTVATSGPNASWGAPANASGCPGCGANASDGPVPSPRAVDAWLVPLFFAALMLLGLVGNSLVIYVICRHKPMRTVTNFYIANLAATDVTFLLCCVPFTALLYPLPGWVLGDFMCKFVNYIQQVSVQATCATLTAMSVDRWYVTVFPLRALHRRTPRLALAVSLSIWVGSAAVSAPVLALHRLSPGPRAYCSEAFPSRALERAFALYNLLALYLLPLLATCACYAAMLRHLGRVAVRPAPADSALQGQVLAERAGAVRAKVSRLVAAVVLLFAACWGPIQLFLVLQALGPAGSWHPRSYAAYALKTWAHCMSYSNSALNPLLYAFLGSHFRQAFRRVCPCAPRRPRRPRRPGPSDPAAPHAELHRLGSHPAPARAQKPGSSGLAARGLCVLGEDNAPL

Substance	response of cells expressing Human GPR54 receptor (FIG. 9) (Human GPR54 receptor)	dose-response activation of rat GPR54 (FIG. 8) (rat GPR54; peptides individually tested against GPR54-expressing cells)	activation of rat GPR54 in the primary screening (rat GPR54; primary agonist screening, cells expressing rat GPR54, β-lactamase readout 4 hours after ligand addition)	response of control cells [1]
antho-RW amide II	robust, dose-dependent response	–	–	–
antho-RWamide I	robust, dose-dependent response	activated rat GPR54 in a dose-dependent manner	activate rat GPR54 specifically	no response
